For this test, the target named is T1, recombinant hGYS1/GN1 protein (Homo sapiens, UniProt P13807).
T1 sequence (P13807 1-737): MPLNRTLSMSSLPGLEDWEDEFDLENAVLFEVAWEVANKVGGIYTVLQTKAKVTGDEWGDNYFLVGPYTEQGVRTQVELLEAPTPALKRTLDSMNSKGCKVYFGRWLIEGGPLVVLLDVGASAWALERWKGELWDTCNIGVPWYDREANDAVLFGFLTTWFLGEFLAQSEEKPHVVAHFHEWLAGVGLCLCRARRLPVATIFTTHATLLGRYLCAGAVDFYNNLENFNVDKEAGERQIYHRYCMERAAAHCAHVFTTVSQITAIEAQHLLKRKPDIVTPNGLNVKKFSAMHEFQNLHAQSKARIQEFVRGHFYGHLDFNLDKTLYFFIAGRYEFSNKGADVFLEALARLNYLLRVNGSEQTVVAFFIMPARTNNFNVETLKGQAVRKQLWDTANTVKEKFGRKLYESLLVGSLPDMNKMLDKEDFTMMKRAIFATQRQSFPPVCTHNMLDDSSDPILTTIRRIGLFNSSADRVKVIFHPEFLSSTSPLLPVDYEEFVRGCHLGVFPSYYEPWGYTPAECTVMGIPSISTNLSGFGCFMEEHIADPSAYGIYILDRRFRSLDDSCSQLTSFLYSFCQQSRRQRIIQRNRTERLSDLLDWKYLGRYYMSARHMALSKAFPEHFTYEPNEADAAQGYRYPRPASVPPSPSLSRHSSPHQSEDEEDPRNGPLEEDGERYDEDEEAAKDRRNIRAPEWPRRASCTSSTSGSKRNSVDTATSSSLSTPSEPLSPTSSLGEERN
T1 sequence (P46976 1-350 partner): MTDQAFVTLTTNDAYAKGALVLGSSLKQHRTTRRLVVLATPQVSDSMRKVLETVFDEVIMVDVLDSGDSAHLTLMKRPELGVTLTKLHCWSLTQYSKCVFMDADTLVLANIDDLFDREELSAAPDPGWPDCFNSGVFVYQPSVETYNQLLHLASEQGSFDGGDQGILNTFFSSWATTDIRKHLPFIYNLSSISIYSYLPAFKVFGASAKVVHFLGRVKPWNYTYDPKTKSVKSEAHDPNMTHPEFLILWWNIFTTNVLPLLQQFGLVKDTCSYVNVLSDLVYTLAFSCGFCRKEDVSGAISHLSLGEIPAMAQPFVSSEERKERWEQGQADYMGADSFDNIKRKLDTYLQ
Kind of test: GYS1 coupled enzyme assay (PK/LDH). Format: biochemical. As to conditions: geometric mean of at least 2 assay runs; NADH absorbance at 340 nm. The source says: The GYS1 coupled enzyme assay is a kinetic biochemical assay that indirectly quantifies the rate of glycogen synthesis by coupling the conversion of GYS1 substrate UDP-glucose into UDP with downstream enzymatic reactions. UDP is released from UDP-glucose as glucose monomers are linked into the growing glycogen strand by GYS1. The coupled assay then proceeds with pyruvate kinase utilizing UDP and phospho(enol)pyruvate (PEP) to form pyruvate. Lactate dehydrogenase then converts pyruvate and NADH into lactate and NAD+. Oxidation of NADH to NAD+ can be measured continuously with a plate reader by quantifying the decrease in NADH absorbance at 340 nm over time.
Compounds that inhibit the hGYS1 enzyme and, subsequently, the downstream conversion of NADH to NAD+, were tested using assay ready plates (black, clear bottom 384 well plates) in a final DMSO reaction volume of 2.5% DMSO. The Assay Buffer contained 50 mM Tris pH 7.5, 2 mM MgCl2, and 100 mM KCl. Fresh stocks of BSA at a final concentration of 0.02% and TCEP at 1 mM were added before splitting buffer into hGYS1 buffer and substrate buffer. To the hGYS1 buffer, rabbit liver glycogen was added at a final concentration of 0.2% glycogen. Glucose-6-Phosphate was added at 1 mM, recombinant hGYS1/GN1 protein was added at 50 nM to the substrate buffer, phosphoenolpyruvate (PEP) was added at 2 mM, UDP-Glucose was added at 0.8 mM, NADH) was added at 0.6 mM, and Pyruvate Kinase/Lactate Dehydrogenase was added at 20 units/mL. The reaction was initiated by mixing hGYS1 buffer and substrate buffer at a 1:1 ratio. Both buffers were plated using a liquid dispensing device with hGYS1 buffer plated first followed by the substrate buffer. Plates were spun briefly to eliminate air bubbles and are immediately read in continuous mode at an absorbance of 340 nm, for 10 time points in one-minute increments, for a total of 10 minutes. The slope from these 10 time points was normalized to the positive and negative control wells. The duplicate % inhibition values are then averaged and fit to a Hill equation for dose response according to the Levenberg-Marquardt algorithm with the Hill equation maximum set to 100 and the minimum set to 0.
The results are shown in Table 3 below, which reports the IC50 of each compound. Unless otherwise specified, IC50 values are reported as the geometric mean of at least 2 assay runs on separate days. Each run represents the average of a technical replicate, where each compound was assayed twice in the same plate. As shown in the table below, the compounds of the present invention are potent inhibitors of human GYS1.

From patent US20260085034A1, “N-(BENZHYDRYL)CYCLOALKYLCARBOXAMIDE DERIVATIVES AS INHIBITORS OF GLYCOGEN SYNTHASE 1 (GYS1) AND METHODS OF USE THEREOF” (Maze Therapeutics, Inc., priority 2022, published 2026) come the findings set out here.

`NC(=O)Nc1ccccc1[C@H](NC(=O)C1CC1)c1ccc(C2CC2)cc1` (single isomer, unassigned) [compound 17]: the IC50 was determined as 2.22 µM.

Take `CC(C)c1ccc([C@@H](NC(=O)C2CC2)c2ccccc2Nc2ncco2)cc1` (single isomer, unassigned) [compound 31]: the IC50 amounted to 1.22 µM.

For `CC(C)c1ccc([C@@H](NC(=O)C2CC2)c2cccc3c2NC(=O)C3)cc1` (single isomer, unassigned) [compound 32], the 50% inhibitory concentration (IC50) came out at 2 µM.

Turning to `COc1ccccc1[C@H](NC(=O)C1CC1)c1ccc(C(C)C)cn1` (single isomer, unassigned) [compound 33], the 50% inhibitory concentration (IC50) amounted to 1.42 µM.

`Cc1n[nH]cc1[C@H](NC(=O)C1CC1)c1ccc(C(C)C)cc1` (single isomer, unassigned) [compound 43]: the half-maximal inhibitory concentration (IC50) turned out to be 2.44 µM.

Take `Cc1ccccc1[C@H](NC(=O)C1CC1)c1ccc(C(C)C)cn1` (single isomer, unassigned) [compound 47]: the IC50 came to 1.81 µM.

Regarding `CC(=O)Nc1cccc([C@H](NC(=O)C2CC2)c2ccc(C(C)C)cc2)c1` [compound 6, (R)-N-((3-acetamidophenyl)(4-isopropylphenyl)methyl)cyclopropanecarboxamide], the IC50 is 0.737 µM.

Consider `Cc1ccccc1[C@H](NC(=O)[C@@H]1CCC[C@@H]1C#N)c1ccc(C(C)C)cc1` [compound 7, (1R,2S)-2-cyano-N-((R)-(4-isopropylphenyl)(o-tolyl)methyl)cyclopentane-1-carboxamide], for which the IC50 worked out at 1.14 µM.

For `CC(C)c1ccc([C@@H](NC(=O)C2CC2)c2ccccc2NC2NC(=O)N(C)C2=O)cc1` (stereo partly drawn) [compound 8, N-((1R)-(4-isopropylphenyl)(2-((1-methyl-2,5-dioxoimidazolidin-4-yl)amino)phenyl)methyl)cyclopropanecarboxamide], the IC50 turned out to be 0.295 µM.

With `CC(C)c1ccc([C@@H](NC(=O)[C@H]2C[C@@H]2F)c2ccccc2NC(=O)C2CCN(C)CC2)cc1` [compound 12, N-(2-((R)-((1R,2S)-2-fluorocyclopropane-1-carboxamido)(4-isopropylphenyl)methyl)phenyl)-1-methylpiperidine-4-carboxamide], the IC50 is 1.64 µM.

Regarding `CNC(=O)[C@H]1CCC[C@H]1C(=O)N[C@H](c1ccc(C(C)C)cc1)c1ccccc1C` [compound 16, (1R,2S)-N^1-((R)-(4-isopropylphenyl)(o-tolyl)methyl)-N^2-methylcyclopentane-1,2-dicarboxamide], the IC50 amounted to 1.74 µM.

For the molecule `COC(=O)CCNC(=O)[C@H]1CCC[C@H]1C(=O)N[C@H](c1ccc(C(C)C)cc1)c1ccccc1C` [compound 20, methyl 3-((1S,2R)-2-(((R)-(4-isopropylphenyl)(o-tolyl)methyl)carbamoyl)cyclopentane-1-carboxamido)propanoate], the 50% inhibitory concentration (IC50) amounted to 2.98 µM.

On to `CC(=O)NCC(=O)N[C@H]1CCC[C@H]1C(=O)N[C@@H](c1ccccc1)c1ccc(C(C)C)cc1` [compound 21, (1R,2S)-2-(2-acetamidoacetamido)-N-((S)-(4-isopropylphenyl)(phenyl)methyl)cyclopentane-1-carboxamide], for which the half-maximal inhibitory concentration (IC50) amounted to 1.53 µM.

Turning to `Cc1ccccc1[C@H](NC(=O)[C@@H]1CCC[C@@H]1C(=O)NC#N)c1ccc(C(C)C)cc1` [compound 22, (1S,2R)-N^1-cyano-N^2-((R)-(4-isopropylphenyl)(o-tolyl)methyl)cyclopentane-1,2-dicarboxamide], the 50% inhibitory concentration (IC50) came out at 1.28 µM.

Turning to `CC(C)c1ccc([C@@H](NC(=O)C2CC2)c2ccccc2NC(=O)C2CN(CC(F)(F)F)C2)cc1` [compound 23, (R)-N-(2-(cyclopropanecarboxamido(4-isopropylphenyl)methyl)phenyl)-1-(2,2,2-trifluoroethyl)azetidine-3-carboxamide], the IC50 was determined as 1.21 µM.

In the case of `COCCN1CC(C(=O)Nc2ccccc2[C@H](NC(=O)C2CC2)c2ccc(C(C)C)cc2)C1` [compound 24, (R)-N-(2-(cyclopropanecarboxamido(4-isopropylphenyl)methyl)phenyl)-1-(2-methoxyethyl)azetidine-3-carboxamide], the half-inhibitory concentration (IC50) is 1.2 µM.

On to `CC(C)c1ccc([C@@H](NC(=O)C2CC2)c2ccccc2NC(=O)C2CN(CC3CC3)C2)cc1` [compound 25, (R)-N-(2-(cyclopropanecarboxamido(4-isopropylphenyl)methyl)phenyl)-1-(cyclopropylmethyl)azetidine-3-carboxamide], for which the half-maximal inhibitory concentration (IC50) was 1.14 µM.

As for `CC(=O)N[C@@H](CC(N)=O)C(=O)N[C@H]1CCC[C@H]1C(=O)N[C@@H](c1ccccc1)c1ccc(C(C)C)cc1` [compound 28, (S)-2-acetamido-N^1-((1S,2R)-2-(((S)-(4-isopropylphenyl)(phenyl)methyl)carbamoyl)cyclopentyl)succinamide], the IC50 worked out at 2.97 µM.

Consider `Cc1ccccc1[C@H](NC(=O)[C@@H]1CCC[C@@H]1C(N)=O)c1ccc(C(C)C)cc1` [compound 30, (1R,2S)-N^1-((R)-(4-isopropylphenyl)(o-tolyl)methyl)cyclopentane-1,2-dicarboxamide], for which the IC50 was 1.39 µM.

On to `CC(C)c1ccc([C@@H](NC(=O)[C@H]2CCC(F)C2)c2ccccc2)cc1` (stereo partly drawn) [compound 34, (1S)-3-fluoro-N-((S)-(4-isopropylphenyl)(phenyl)methyl)cyclopentane-1-carboxamide], for which the IC50 amounted to 0.778 µM.

`CC(C)c1ccc([C@@H](NC(=O)[C@H]2CCC(O)C2)c2ccccc2)cc1` (stereo partly drawn) [compound 35, (1S)-3-hydroxy-N-((S)-(4-isopropylphenyl)(phenyl)methyl)cyclopentane-1-carboxamide]: the concentration for half-maximal inhibition (IC50) worked out at 1.13 µM.

Turning to `CC(C)c1ccc([C@@H](NC(=O)[C@@H]2CCC[C@@H]2NC(N)=O)c2ccccc2)cc1` [compound 38, (1R,2S)-N-((S)-(4-isopropylphenyl)(phenyl)methyl)-2-ureidocyclopentane-1-carboxamide], the IC50 amounted to 1.92 µM.

As to `O=C(N[C@@H](c1ccccc1)c1ccc(C2CCC2)cc1)C1CC1` [compound 40, (S)-N-((4-cyclobutylphenyl)(phenyl)methyl)cyclopropanecarboxamide], the half-inhibitory concentration (IC50) stood at 1.33 µM.

Turning to `O=C(N[C@@H](c1ccccc1)c1ccc(C2CC2)cc1)C1CC1` [compound 41, (S)-N-((4-cyclopropylphenyl)(phenyl)methyl)cyclopropanecarboxamide], the half-inhibitory concentration (IC50) is 2.06 µM.

In the case of `CC(=O)N1CC[C@H]1C(=O)Nc1ccccc1[C@H](NC(=O)C1CC1)c1ccc(C(C)C)cc1` [compound 42, (S)-1-acetyl-N-(2-((R)-cyclopropanecarboxamido(4-isopropylphenyl)methyl)phenyl)azetidine-2-carboxamide], the IC50 came to 1.48 µM.

For `CC(C)c1ccc([C@@H](NC(=O)C2CC2)c2ccccc2)nc1` [compound 45, (S)-N-((5-isopropylpyridin-2-yl)(phenyl)methyl)cyclopropanecarboxamide], the IC50 amounted to 2.49 µM.
